Like-named read-outs stand apart in the source and are kept apart here.
Assays:
Format in all cases: biochemical
[1] = biological target: T1, PI3K β (p110β/p85α) (Homo sapiens, UniProt P42338); assay: PI 3-Kinase (human) HTRF assay, PI3K β; conditions: read-out: PI3K β IC50
T1 construct: purchased Upstate / Millipore Corporation

[2] = biological target: T2, PI3K γ (p110γ) (Homo sapiens, UniProt P48736); assay: PI 3-Kinase (human) HTRF assay, PI3K γ
T2 construct: purchased Upstate / Millipore Corporation
T2 sequence (P48736 whole entry): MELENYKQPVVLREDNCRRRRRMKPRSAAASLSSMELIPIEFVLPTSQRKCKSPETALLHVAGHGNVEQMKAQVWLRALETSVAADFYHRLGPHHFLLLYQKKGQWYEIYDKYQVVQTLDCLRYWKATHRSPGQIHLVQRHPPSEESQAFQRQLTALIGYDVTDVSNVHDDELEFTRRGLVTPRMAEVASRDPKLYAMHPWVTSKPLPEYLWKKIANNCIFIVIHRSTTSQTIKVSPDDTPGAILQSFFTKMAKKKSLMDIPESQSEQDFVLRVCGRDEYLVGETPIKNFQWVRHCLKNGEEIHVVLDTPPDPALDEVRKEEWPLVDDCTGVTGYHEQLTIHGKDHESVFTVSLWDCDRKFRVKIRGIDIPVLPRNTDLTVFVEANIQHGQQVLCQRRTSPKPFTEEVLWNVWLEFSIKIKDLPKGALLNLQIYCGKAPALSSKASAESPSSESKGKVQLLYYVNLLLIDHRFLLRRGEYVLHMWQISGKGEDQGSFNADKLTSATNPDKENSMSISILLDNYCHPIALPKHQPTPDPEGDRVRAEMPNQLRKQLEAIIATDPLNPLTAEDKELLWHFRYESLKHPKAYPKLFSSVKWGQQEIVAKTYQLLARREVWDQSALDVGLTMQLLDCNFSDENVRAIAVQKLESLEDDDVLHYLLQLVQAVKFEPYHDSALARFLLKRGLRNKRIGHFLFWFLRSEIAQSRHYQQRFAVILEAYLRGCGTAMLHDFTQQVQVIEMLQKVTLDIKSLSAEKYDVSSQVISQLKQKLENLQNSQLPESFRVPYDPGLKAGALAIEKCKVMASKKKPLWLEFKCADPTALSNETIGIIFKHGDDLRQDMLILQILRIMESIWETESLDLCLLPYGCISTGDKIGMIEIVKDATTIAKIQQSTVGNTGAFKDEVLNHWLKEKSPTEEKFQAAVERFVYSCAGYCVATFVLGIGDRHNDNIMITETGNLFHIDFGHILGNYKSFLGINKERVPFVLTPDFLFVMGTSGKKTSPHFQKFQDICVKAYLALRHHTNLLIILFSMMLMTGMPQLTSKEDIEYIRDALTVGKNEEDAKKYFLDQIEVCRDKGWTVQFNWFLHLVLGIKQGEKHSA

[3] = biological target: T3, PI3K α (p110α/p85α) (Homo sapiens, UniProt P42336); assay: PI 3-Kinase (human) HTRF assay, PI3K α; conditions: read-out: PI3K α IC50
T3 construct: purchased Upstate / Millipore Corporation
T3 sequence (P42336 whole entry): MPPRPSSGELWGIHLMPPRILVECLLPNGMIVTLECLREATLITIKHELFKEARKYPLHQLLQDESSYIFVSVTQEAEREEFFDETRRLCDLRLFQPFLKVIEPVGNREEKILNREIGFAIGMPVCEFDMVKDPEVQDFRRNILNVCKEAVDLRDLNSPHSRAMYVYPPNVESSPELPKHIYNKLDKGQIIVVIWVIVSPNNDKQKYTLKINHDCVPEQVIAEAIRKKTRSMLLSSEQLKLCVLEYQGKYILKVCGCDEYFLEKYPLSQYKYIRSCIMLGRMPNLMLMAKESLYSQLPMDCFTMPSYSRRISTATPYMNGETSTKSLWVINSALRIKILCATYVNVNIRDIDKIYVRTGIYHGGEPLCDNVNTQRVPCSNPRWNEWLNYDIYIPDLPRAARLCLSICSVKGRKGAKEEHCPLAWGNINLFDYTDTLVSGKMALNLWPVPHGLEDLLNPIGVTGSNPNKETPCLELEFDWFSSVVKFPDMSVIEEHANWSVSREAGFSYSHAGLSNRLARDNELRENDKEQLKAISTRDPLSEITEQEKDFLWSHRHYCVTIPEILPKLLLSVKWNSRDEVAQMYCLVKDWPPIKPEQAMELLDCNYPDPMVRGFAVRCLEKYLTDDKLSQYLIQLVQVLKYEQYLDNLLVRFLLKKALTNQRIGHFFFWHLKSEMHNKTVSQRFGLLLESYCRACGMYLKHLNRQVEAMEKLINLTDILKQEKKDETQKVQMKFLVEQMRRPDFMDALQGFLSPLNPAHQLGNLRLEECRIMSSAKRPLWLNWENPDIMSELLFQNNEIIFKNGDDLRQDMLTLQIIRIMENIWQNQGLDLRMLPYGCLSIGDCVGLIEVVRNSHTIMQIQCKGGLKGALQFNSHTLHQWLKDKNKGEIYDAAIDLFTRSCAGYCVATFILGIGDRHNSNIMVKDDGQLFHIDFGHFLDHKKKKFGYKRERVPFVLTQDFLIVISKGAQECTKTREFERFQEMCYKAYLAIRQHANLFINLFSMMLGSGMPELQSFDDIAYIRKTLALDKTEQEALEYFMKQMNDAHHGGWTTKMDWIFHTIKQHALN
T3 sequence (P27986 whole entry partner): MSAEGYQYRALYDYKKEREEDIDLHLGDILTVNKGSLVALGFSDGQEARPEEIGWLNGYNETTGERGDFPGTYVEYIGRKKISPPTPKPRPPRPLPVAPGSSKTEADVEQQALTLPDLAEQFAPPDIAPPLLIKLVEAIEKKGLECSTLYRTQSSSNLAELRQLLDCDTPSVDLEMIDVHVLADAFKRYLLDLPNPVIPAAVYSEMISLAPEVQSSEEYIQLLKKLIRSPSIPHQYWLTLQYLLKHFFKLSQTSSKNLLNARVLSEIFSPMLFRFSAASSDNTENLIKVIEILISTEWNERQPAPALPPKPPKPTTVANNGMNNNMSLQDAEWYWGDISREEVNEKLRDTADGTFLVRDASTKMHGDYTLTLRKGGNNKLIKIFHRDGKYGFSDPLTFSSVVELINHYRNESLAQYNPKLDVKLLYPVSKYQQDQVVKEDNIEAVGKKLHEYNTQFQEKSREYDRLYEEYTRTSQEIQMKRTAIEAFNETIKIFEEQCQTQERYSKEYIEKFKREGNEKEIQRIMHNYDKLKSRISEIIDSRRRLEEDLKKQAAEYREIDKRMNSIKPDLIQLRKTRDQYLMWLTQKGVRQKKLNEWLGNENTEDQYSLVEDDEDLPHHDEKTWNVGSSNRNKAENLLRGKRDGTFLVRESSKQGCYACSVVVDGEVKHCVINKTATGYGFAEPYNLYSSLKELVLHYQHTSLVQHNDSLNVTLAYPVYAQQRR

[4] = biological target: T4, PI3K δ (Homo sapiens, UniProt O00329); assay: PI 3-Kinase (human) HTRF assay, PI3K δ
T4 construct: purchased Upstate / Millipore Corporation
T4 sequence (O00329 whole entry): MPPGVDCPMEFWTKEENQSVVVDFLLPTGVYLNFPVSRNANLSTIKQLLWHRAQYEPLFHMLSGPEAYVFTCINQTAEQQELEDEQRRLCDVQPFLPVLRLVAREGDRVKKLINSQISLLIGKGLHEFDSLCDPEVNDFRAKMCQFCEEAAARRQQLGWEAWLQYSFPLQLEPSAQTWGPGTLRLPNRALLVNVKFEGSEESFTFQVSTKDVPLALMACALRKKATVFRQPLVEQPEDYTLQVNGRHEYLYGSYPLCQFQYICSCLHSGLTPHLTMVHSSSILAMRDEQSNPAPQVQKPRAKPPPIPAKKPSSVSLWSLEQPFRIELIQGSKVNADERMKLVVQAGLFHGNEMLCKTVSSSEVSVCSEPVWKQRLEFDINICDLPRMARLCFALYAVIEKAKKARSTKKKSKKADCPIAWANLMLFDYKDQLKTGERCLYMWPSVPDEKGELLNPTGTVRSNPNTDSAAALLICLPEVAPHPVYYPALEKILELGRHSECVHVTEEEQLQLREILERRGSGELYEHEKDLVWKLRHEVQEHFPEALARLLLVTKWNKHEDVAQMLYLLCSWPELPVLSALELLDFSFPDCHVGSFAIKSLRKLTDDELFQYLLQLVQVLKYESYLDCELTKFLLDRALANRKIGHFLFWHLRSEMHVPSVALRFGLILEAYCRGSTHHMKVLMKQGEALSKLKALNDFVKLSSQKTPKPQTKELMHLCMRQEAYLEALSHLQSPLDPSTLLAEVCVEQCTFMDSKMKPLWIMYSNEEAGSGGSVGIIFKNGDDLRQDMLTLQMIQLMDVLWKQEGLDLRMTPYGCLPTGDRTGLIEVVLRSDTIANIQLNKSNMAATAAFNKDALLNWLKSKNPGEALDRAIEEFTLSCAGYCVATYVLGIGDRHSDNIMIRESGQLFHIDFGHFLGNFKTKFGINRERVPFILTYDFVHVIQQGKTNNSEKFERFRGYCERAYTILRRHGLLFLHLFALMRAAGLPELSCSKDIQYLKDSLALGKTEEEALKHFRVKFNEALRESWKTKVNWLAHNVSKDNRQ
T4 sequence (P27986 whole entry partner): as the sequence (P27986 whole entry partner) above

[5] = Table 4 (PI3K α inhibitors), read-out: PI3K γ IC50
[6] = Table 4 (PI3K α inhibitors), read-out: PI3K δ IC50

T1 sequence (P42338 whole entry): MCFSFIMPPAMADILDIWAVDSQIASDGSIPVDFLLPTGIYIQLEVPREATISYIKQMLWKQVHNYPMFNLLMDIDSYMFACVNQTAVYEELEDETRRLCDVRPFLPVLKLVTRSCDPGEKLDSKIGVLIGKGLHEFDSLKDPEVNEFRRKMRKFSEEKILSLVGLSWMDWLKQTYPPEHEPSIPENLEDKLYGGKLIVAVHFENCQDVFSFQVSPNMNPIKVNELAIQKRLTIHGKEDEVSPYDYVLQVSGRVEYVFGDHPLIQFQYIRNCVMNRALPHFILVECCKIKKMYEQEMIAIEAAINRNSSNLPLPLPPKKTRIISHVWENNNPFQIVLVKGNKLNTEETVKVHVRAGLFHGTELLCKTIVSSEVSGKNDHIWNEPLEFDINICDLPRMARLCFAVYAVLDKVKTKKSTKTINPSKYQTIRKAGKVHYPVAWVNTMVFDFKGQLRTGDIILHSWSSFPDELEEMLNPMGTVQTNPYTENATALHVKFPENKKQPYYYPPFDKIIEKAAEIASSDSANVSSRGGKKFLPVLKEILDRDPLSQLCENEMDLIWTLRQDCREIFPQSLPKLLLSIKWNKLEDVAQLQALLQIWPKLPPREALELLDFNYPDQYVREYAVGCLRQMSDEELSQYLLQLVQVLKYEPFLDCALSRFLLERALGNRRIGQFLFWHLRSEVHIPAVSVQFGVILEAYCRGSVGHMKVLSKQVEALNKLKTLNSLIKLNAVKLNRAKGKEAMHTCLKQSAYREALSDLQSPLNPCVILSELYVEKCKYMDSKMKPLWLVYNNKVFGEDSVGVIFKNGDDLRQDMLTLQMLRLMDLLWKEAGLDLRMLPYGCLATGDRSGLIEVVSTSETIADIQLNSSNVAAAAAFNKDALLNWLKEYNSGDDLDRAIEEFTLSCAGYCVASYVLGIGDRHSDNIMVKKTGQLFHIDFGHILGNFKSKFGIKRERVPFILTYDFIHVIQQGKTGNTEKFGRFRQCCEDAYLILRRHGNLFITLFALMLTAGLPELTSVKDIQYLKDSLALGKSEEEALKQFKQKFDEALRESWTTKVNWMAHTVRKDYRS
T1 sequence (P27986 whole entry partner): as the sequence (P27986 whole entry partner) above

| SMILES | IC50 [1] | IC50 ([2]; read-out: PI3K γ IC50) | IC50 [3] | IC50 ([4]; read-out: PI3K δ IC50) | IC50 ([1]; Table 4 (PI3K α inhibitors)) | IC50 [2, 5] | IC50 ([3]; Table 4 (PI3K α inhibitors)) | IC50 [4, 6] | IC50 ([2]; PI3K γ IC50 (nM)) | IC50 [4] |
| --- | --- | --- | --- | --- | --- | --- | --- | --- | --- | --- |
| Nc1nc2ccc(-c3ccc4nnc(-c5cccnc5)n4c3)cc2o1 [Compound 301] | < 10 µM | > 10000 nM | < 10 µM | > 10 µM |  |  |  |  |  |  |
| CC(=O)n1nc(N)c2ccc(-c3ccc4oc(N)nc4c3)cc21 [Compound 426] | > 10 µM | > 10000 nM | > 10 µM | > 10 µM |  |  |  |  |  |  |
| CCn1cnc2ccc(-c3ccc4oc(N)nc4c3)cc2c1=O [Compound 183] | < 10 µM | < 100 nM | < 0.1 µM | < 10 µM |  |  |  |  |  |  |
| Nc1nc2cc(-c3ccc4ncc(N5CCNCC5)nc4c3)ccc2o1 [Compound 88] | < 0.1 µM | < 1000 nM | < 0.1 µM | < 10 µM |  |  |  |  |  |  |
| Cc1cn(C2CN(c3cnc4ccc(-c5ccc6oc(N)nc6c5)cc4n3)C2)cn1 [Compound 339] | < 1 µM | < 1000 nM | < 0.1 µM | < 1 µM |  |  |  |  |  |  |
| CC(=O)Nc1cn2cc(-c3ccc4nccc(-c5ccncc5)c4c3)ccc2n1 [Compound 19] | > 10 µM | > 10000 nM | > 10 µM | > 10 µM |  |  |  |  |  |  |
| Cc1cc(-c2ccc3oc(N)nc3c2)cc2c(-c3ccncc3)cnn12 [Compound 397] | < 1 µM | < 100 nM | < 0.1 µM | < 1 µM |  |  |  |  |  |  |
| CNC(=O)CN1CCN(c2cnc3ccc(-c4ccc5oc(N)nc5c4)cc3n2)CC1 [Compound 120] | < 1 µM | > 10000 nM | < 0.1 µM | < 10 µM |  |  |  |  |  |  |
| Cc1c(-c2ccc3oc(N)nc3c2)ccc2ncc(N3CCN[C@@H](C)C3)nc12 [Compound 374] | < 0.1 µM | > 10000 nM | < 1 µM | < 10 µM |  |  |  |  |  |  |
| Nc1nc2cc(-c3ccc4ncc(N5CCN(C(=O)CN6CCCC6)CC5)nc4c3)ccc2o1 [Compound 278] | < 1 µM | < 1000 nM | < 0.1 µM | < 10 µM |  |  |  |  |  |  |
| Nc1nc2cc(-c3ccc4ncc(N5CCN(CC(F)(F)F)CC5)nc4c3)ccc2o1 [Compound 395] | > 10 µM | < 100 nM | < 0.1 µM | > 10 µM |  |  |  |  |  |  |
| CN1CCC(c2cnc3ccc(-c4ccc5oc(N)nc5c4)cc3n2)CC1 [Compound 385] | < 10 µM | > 10000 nM | < 0.1 µM | > 10 µM |  |  |  |  |  |  |
| C[C@H]1CN(c2cnc3ccc(-c4cccc5nc(N)oc45)cc3n2)CCN1 [Compound 310] | > 10 µM | > 10000 nM | > 10 µM | > 10 µM |  |  |  |  |  |  |
| Nc1nc2cc(-c3cn4c(-c5ccncc5)cnc4cn3)ccc2o1 [Compound 68] | < 10 µM | < 1000 nM | < 0.1 µM | < 10 µM |  |  |  |  |  |  |
| Nc1nc2ccc(-c3ccc4sc(N)nc4c3)cc2o1 [Compound 249] | < 0.1 µM | < 100 nM | < 0.1 µM | < 1 µM |  |  |  |  |  |  |
| CN1CCC(N(C)c2ncnc3ccc(-c4ccc5oc(N)nc5c4)cc23)CC1 [Compound 155] | < 0.1 µM |  | < 0.1 µM |  |  |  |  |  | < 100 nM | < 1 µM |
| Nc1nc2cc(-c3ccc4ncn(C5CC5)c(=O)c4c3)ccc2o1 [Compound 254] | > 10 µM | < 1000 nM | < 1 µM | > 10 µM |  |  |  |  |  |  |
| CC(=O)Nc1nc2cc(-c3ccc4oc(N)nc4c3)ccc2s1 [Compound 250] | > 10 µM | < 100 nM | > 10 µM | > 10 µM |  |  |  |  |  |  |
| CN1CCN(n2cnc3ccc(-c4ccc5oc(N)nc5c4)cc3c2=O)CC1 [Compound 518] | > 10 µM | > 10000 nM | < 1 µM | > 10 µM |  |  |  |  |  |  |
| Nc1nc2cc(-c3ccc4ncc(N5CCNCC5=O)nc4c3)ccc2o1 [Compound 389] | > 10 µM | < 10000 nM | < 1 µM | > 10 µM |  |  |  |  |  |  |
| Cc1ccc(-c2cnc3ccc(-c4ccc5oc(N)nc5c4)cc3n2)cn1 [Compound 194] | > 10 µM | < 100 nM | < 0.1 µM | > 10 µM |  |  |  |  |  |  |
| Nc1nc2cccc(-c3ccc4nccc(-c5ccncc5)c4c3)c2s1 [Compound 17] | < 1 µM | < 100 nM | < 0.1 µM | < 1 µM |  |  |  |  |  |  |
| CC(C)N1CCC(n2cnc3ccc(-c4cncc(NS(C)(=O)=O)c4)cc3c2=O)CC1 [Compound 520] | > 10 µM | > 10000 nM | > 10 µM | > 10 µM |  |  |  |  |  |  |
| Nc1nc2cc(-c3ccc4ncc(N5CC(n6ccnc6)C5)nc4c3)ccc2o1 [Compound 319] | < 1 µM | < 1000 nM | < 0.1 µM | < 10 µM |  |  |  |  |  |  |
| Nc1nc2cc(-c3ccc4nccc(-c5ccncc5)c4c3)ccc2s1 [Compound 70] | < 0.1 µM | < 100 nM | < 0.1 µM | < 0.1 µM |  |  |  |  |  |  |

Further lines, with some results ahead:

| IC50 [1] | IC50 ([2]; read-out: PI3K γ IC50) | IC50 [3] | IC50 ([4]; read-out: PI3K δ IC50) | IC50 ([1]; Table 4 (PI3K α inhibitors)) | IC50 [2, 5] | IC50 ([3]; Table 4 (PI3K α inhibitors)) | IC50 [4, 6] | SMILES | IC50 ([2]; PI3K γ IC50 (nM)) | IC50 [4] |
| --- | --- | --- | --- | --- | --- | --- | --- | --- | --- | --- |
| > 10 µM | > 10000 nM | < 10 µM | > 10 µM |  |  |  |  | CN1CCN(C(=O)c2cnc3ccc(-c4ccc5oc(N)nc5c4)cc3n2)CC1 [Compound 157] |  |  |
| < 1 µM | < 1000 nM | < 1 µM | > 10 µM |  |  |  |  | Nc1nc2ccc(-c3ccc4ncc(C(=O)N5CCOCC5)n4c3)cc2o1 [Compound 124] |  |  |
| > 10 µM | > 10000 nM | > 10 µM | > 10 µM |  |  |  |  | CN1CCN(Cc2nnc3ccc(-c4ccc5nc(N)oc5c4)cn23)CC1 [Compound 547] |  |  |
| < 10 µM | < 100 nM | < 0.1 µM | < 0.1 µM |  |  |  |  | Nc1nc2cc(-c3ccc4ncnc(NC5CCN(C(=O)C6CC6)CC5)c4c3)ccc2o1 [Compound 89] |  |  |
| > 10 µM | > 10000 nM | > 10 µM | > 10 µM |  |  |  |  | Nc1noc2c(-c3ccc4ncc(C(=O)N5CCOCC5)n4c3)cccc12 [Compound 491] |  |  |
| < 10 µM | > 10000 nM | < 0.1 µM | > 10 µM |  |  |  |  | CC(C)N1CCN(C(=O)c2cnc3ccc(-c4ccc5oc(N)nc5c4)cn23)CC1 [Compound 160] |  |  |
| > 10 µM | > 10000 nM | > 10 µM | > 10 µM |  |  |  |  | Cc1c(-c2ccc3ncc(C(=O)N4CCOCC4)n3c2)ccc2oc(N)nc12 [Compound 369] |  |  |
| > 10 µM | > 10000 nM | < 10 µM | > 10 µM |  |  |  |  | CNS(=O)(=O)c1cncc(-c2ccc3ncc(C(=O)N4CCOCC4)n3c2)c1 [Compound 450] |  |  |
| < 10 µM | > 10000 nM | < 0.1 µM | > 10 µM |  |  |  |  | Nc1nc2cc(-c3ccc4ncc(C(=O)N5CCNCC5)n4c3)ccc2o1 [Compound 111] |  |  |
|  |  |  |  | < 1 µM | < 1000 nM | < 0.1 µM | < 1 µM | C[C@H](N)C(=O)N1CCN(c2cnc3ccc(-c4ccc5oc(N)nc5c4)nc3c2)CC1 [Compound 589] |  |  |
| > 10 µM | > 10000 nM | < 1 µM | > 10 µM |  |  |  |  | Cn1c(N2CCOCC2)nc2cc(-c3ccc4oc(N)nc4c3)ccc2c1=O [Compound 80] |  |  |
| < 1 µM | < 100 nM | < 1 µM | > 10 µM |  |  |  |  | Cc1cc(-c2ccc3nc(N)oc3c2)cn2c(C(=O)N3CCOCC3)cnc12 [Compound 449] |  |  |
| < 10 µM | < 10000 nM | < 0.1 µM | < 10 µM |  |  |  |  | Nc1nc2cc(-c3ccc4ncc(C(=O)N5CCN(C6CC6)CC5)n4c3)ccc2o1 [Compound 263] |  |  |
| > 10 µM | < 10000 nM | > 10 µM | > 10 µM |  |  |  |  | CC(=O)Nc1cc2ccc(-c3cc(F)c4oc(N)nc4c3)cn2n1 [Compound 401] |  |  |
| > 10 µM | > 10000 nM | > 10 µM | > 10 µM |  |  |  |  | Cc1nc2ccc(-c3ccc4oc(N)nc4c3)cn2c1C(=O)N1CCN(C)CC1 [Compound 91] |  |  |
| > 10 µM | > 10000 nM | > 10 µM | > 10 µM |  |  |  |  | Nc1nc2cc(-c3ccc4ncn(C(=O)N5CCOCC5)c4c3)ccc2o1 [Compound 317] |  |  |
| < 10 µM | > 10000 nM | < 1 µM | > 10 µM |  |  |  |  | Nc1nc2cc(-c3ccc4ncc(N5CC(N6CCOCC6)C5)nc4c3)c(Cl)cc2o1 [Compound 371] |  |  |
| < 10 µM | < 1000 nM | < 1 µM | > 10 µM |  |  |  |  | Cc1cc(-c2ccc3ncc(C(=O)N4CCOCC4)n3c2)cc2nc(N)oc12 [Compound 364] |  |  |
| < 10 µM | < 100 nM | < 0.1 µM | < 0.1 µM |  |  |  |  | Nc1nc2cc(-c3ccc4ncc(C(=O)NC5CCOCC5)n4c3)ccc2o1 [Compound 83] |  |  |
| > 10 µM | > 10000 nM | < 0.1 µM | > 10 µM |  |  |  |  | O=C(c1cnc2ccc(-c3cncc4[nH]ncc34)cn12)N1CCOCC1 [Compound 506] |  |  |
| > 10 µM | < 1000 nM | < 0.1 µM | > 10 µM |  |  |  |  | Nc1nc2ccc(-c3ccc4ncc(N5CCOCC5)nc4c3)cc2s1 [Compound 114] |  |  |
| > 10 µM | > 10000 nM | < 10 µM | > 10 µM |  |  |  |  | Nc1nc2cccc(-c3ccc4ncc(C(=O)N5CCOCC5)n4c3)c2s1 [Compound 485] |  |  |
| > 10 µM | < 10000 nM | < 1 µM | > 10 µM |  |  |  |  | Cc1cc(-c2ccc3oc(N)nc3c2)cn2c(C(=O)N3CCOCC3)cnc12 [Compound 448] |  |  |
|  |  |  |  | < 0.1 µM | < 1000 nM | < 0.1 µM | < 1 µM | C[C@@H](N)C(=O)N1CCN(c2cnc3ccc(-c4ccc5oc(N)nc5c4)nc3c2)CC1 [Compound 590] |  |  |
|  |  |  |  | < 1 µM | < 100 nM | < 0.1 µM | > 10 µM | Nc1nc2cc(-c3ccc4ncc(N5CCOCC5)cc4n3)ccc2o1 [Compound 573] |  |  |

From patent publication US20150087627A1, “COMBINATION OF KINASE INHIBITORS AND USES THEREOF” (Intellikine LLC, priority 2011, published 2015)
